# Experimental data: US20050137255A1, “Crystalline escitalopram hydrobromide and methods for preparing the same” (H. Lundbeck A/S, priority 2002, published 2005)
# “Also recorded” adds a separate entry of the source. Where a name gives a salt, the structure may show the parent alone.
# How the values were obtained:
# Assay type in all cases: physicochemical
# [1] = Dynamic vapor sorption (DVS) of Form I
# [2] = Exposure of crystalline material to air (hygroscopicity); settings: sample exposed to air
# [3] = Thermogravimetric analysis (TGA) of Form I; settings: heated 10°/min
# Method: The sample (1-5 mg) was heated 10°/min. on a TA Instruments TGA 2950 (available from TA Instruments of New Castle, Del.). No weight loss (<0.1%) was observed up to 150° C. Decomposition began at approximately 240° C.
# [4] = Stability (stated property)
smiles,measurement,setting,value
"CN(C)CCC[C@@]1(c2ccc(F)cc2)OCc2cc(C#N)ccc21 [Form I, (S)-1-[3-(dimethylamino)propyl]-1-(4-fluorophenyl)-1,3-dihydro-5-isobenzofuran carbonitrile hydrobromide]",hygroscopicity,[1]; after water uptake at 80% relative humidity,very hygroscopic
same,water absorbed,"[1]; at 80% relative humidity, corresponds to 14%",about 3.6 mol-equivalent of water
same,water absorbed,[1]; at 95% relative humidity,~9 mol-equivalent of water
same,water absorbed,"[1]; first run, at 80% relative humidity",14%
same,water absorbed,"[1]; first run, until the relative humidity exceeded 70%",no water was absorbed
same,hygroscopicity,"[1]; relative humidity less than (about) 70%, hydrobromide",not hygroscopic; also recorded: non-hygroscopic
same,hygroscopicity,[2],non-hygroscopic
same,decomposition began,[3],approximately 240 °C
same,weight loss,[3]; up to 150° C.,< 0.1%
same,stability,[4],stable
